Measurements: patent publication US10457663B2, “Pyrazol-pyridine derivatives” (Hoffmann-La Roche Inc., priority 2016, dated 2019)

Columns and labels:
human EAAT3 = molecular target: T1, human EAAT3 (Homo sapiens, UniProt P43005); experiment: FLIPR Membrane Potential (FMP) assay; assay type: cell-based; conditions: HEK-293 cells stably expressing human EAAT3; L-glutamate as agonist at EC80; antagonist applied 15 min before; Kb by Cheng-Prusoff from IC50
T1 construct: expressed in transfected cells; host or cells: HEK-293
T1 sequence (P43005 1-524): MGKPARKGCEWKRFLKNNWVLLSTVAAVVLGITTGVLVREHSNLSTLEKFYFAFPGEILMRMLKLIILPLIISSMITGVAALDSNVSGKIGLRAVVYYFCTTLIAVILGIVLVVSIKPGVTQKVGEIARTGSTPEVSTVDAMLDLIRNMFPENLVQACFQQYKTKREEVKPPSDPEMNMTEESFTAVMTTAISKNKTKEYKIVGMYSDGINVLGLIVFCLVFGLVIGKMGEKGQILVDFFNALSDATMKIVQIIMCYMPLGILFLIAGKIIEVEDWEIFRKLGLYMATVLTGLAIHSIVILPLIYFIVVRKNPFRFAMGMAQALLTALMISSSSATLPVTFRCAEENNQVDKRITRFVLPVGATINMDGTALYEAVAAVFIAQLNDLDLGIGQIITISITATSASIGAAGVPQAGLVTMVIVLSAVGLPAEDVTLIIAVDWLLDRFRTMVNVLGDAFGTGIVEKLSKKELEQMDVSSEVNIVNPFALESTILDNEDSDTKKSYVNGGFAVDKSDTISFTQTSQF
Description: The FLIPR Membrane Potential (FMP) assay
HEK-293 cells stably expressing human EAAT3 were seeded at 55 000 cells/well in growth medium (DMEM glutamate free (Invitrogen 11960-044), 1% Pen Strep (10 ml/l GIBCO BRL N^o 15140-023), 10% FCS non dialysed heat inactivated, 5 mg/l puromycin) in poly-D-lysine treated 96-well black microtiter plates with clear-bottom. After 24 h, the growth medium was removed and 100 μl/well of Krebs buffer (140 mM NaCl, 4.7 mM KCl, 2.5 mM CaCl2), 1.2 mM MgCl2, 11 mM HEPES, 10 mM D-glucose, pH=7.4) added. The cells were then loaded by adding 100 μl/well FMP assay dye (FLIPR Membrane Potential assay reagent, Molecular Devices). The 96-well plates were then incubated at 37° C. for 1 h. The depolarization of the cells will cause more dye to enter in the cells, where it will bind to intracellular proteins and lipids and cause an increase in the fluorescence signal. Antagonist potency at human EAAT3 was determined by using L-glutamate as agonist at a concentration which gives 80% of the maximum response. The antagonists were applied 15 min before the application of the agonist L-glutamate. The assays were performed at room temperature and measurements done by using a Fluorometric Imaging Plate Reader (FLIPR, Molecular Devices) and filter #2. Responses were measured as peak increase in fluorescence minus basal (i.e. fluorescence without addition of L-glutamate). Kb was determined using the Cheng-Prusoff equation Kb=IC50/[1+(A/EC50)], where IC50 is the concentration of the antagonist producing 50% inhibition, A is the concentration of the agonist against which the IC50 is being determined (at EC80) and EC50 is the concentration of the agonist producing 50% […].

Row | Compound | melting point [°C] | Kb (human EAAT3) [nM]
1 | Cc1cc(-c2cc(C(=O)NC(C)(C)C)cc(-c3ccnn3C(C)C)n2)ccc1F [Example 37, N-tert-Butyl-2-(4-fluoro-3-methyl-phenyl)-6-(2-propan-2-yl-pyrazol-3-yl)-pyridine-4-carboxamide] | 160 | 400
2 | CCn1nccc1-c1cc(C(=O)NC(C)(C)C)cc(-c2ccc(Cl)cc2)n1 [Example 39, N-tert-Butyl-2-(4-chlorophenyl)-6-(2-ethyl-pyrazol-3-yl)-pyridine-4-carboxamide] | 179 | 510
3 | CC(C)(C)NC(=O)c1cc(-c2ccc(Cl)cc2)nc(-c2ccnn2CC2CC2)c1 [Example 40, N-tert-Butyl-2-(4-chlorophenyl)-6-[2-(cyclopropyl-methyl)-pyrazol-3-yl]-pyridine-4-carboxamide] | 218 | 490
4 | CCn1nccc1-c1cc(C(=O)NC(C)(C)C)cc(-c2ccc(C(F)(F)F)cc2)n1 [Example 41, N-tert-Butyl-2-(2-ethyl-pyrazol-3-yl)-6-[4-(trifluoromethyl)-phenyl]-pyridine-4-carboxamide] | 186 | 750
5 | CC(C)(C)NC(=O)c1cc(-c2ccc(C(F)(F)F)cc2)nc(-c2ccnn2CC2CC2)c1 [Example 42, N-tert-Butyl-2-[2-(cyclopropylmethyl)-pyrazol-3-yl]-6-[4-(trifluoromethyl)-phenyl]-pyridine-4-carboxamide] | 203 | 380
6 | CC(C)n1nccc1-c1cc(C(=O)NC(C)(C)C(F)(F)F)cc(-c2ccc(F)cc2)n1 [Example 44, 2-(4-Fluorophenyl)-6-(2-propan-2-yl-pyrazol-3-yl)-N-(1,1,1-trifluoro-2-methyl-propan-2-yl)-pyridine-4-carboxamide] | 186 | 560
7 | CC(C)n1nccc1-c1cc(C(=O)NC(C)(C)C2CC2)cc(-c2ccc(F)cc2)n1 [Example 46, N-(2-Cyclopropyl-propan-2-yl)-2-(4-fluorophenyl)-6-(2-propan-2-yl-pyrazol-3-yl)-pyridine-4-carboxamide] | 173 | 550
8 | CC(C)n1nccc1-c1cc(C(=O)NC(C)(C)CO)cc(-c2ccc(F)cc2)n1 [Example 47, 2-(4-Fluorophenyl)-N-(1-hydroxy-2-methyl-propan-2-yl)-6-(2-propan-2-yl-pyrazol-3-yl)-pyridine-4-carboxamide] | 180 | 310
9 | CC(C)(C)NC(=O)c1cc(-c2ccc(F)cc2)nc(-c2ccnn2C2CC2)c1 [Example 48, N-tert-Butyl-2-(2-cyclopropyl-pyrazol-3-yl)-6-(4-fluorophenyl)-pyridine-4-carboxamide] | 175 | 240
10 | CC(C)n1nccc1-c1cc(C(=O)NC(C)(C)C2CC2)cc(-c2ccc(Cl)cc2)n1 [Example 49, 2-(4-Chlorophenyl)-N-(2-cyclopropyl-propan-2-yl)-6-(2-propan-2-yl-pyrazol-3-yl)-pyridine-4-carboxamide] | 164 | 3100
11 | CC(C)n1nccc1-c1cc(C(=O)NC(C)(C)C(F)(F)F)cc(-c2ccc(Cl)cc2)n1 [Example 50, 2-(4-Chlorophenyl)-6-(2-propan-2-yl-pyrazol-3-yl)-N-(1,1,1-trifluoro-2-methylpropan-2-yl)-pyridine-4-carboxamide] | 177 | 1430
12 | CC(C)n1nccc1-c1cc(C(=O)NC(C)(C)CO)cc(-c2ccc(Cl)cc2)n1 [Example 51, 2-(4-Chlorophenyl)-N-(1-hydroxy-2-methylpropan-2-yl)-6-(2-propan-2-yl-pyrazol-3-yl)-pyridine-4-carboxamide] | 165 | 340
13 | CC(C)n1nccc1-c1cc(C(=O)NC(C)(C)C#N)cc(-c2ccc(Cl)cc2)n1 [Example 52, 2-(4-Chlorophenyl)-N-(2-cyanopropan-2-yl)-6-(2-propan-2-yl-pyrazol-3-yl)-pyridine-4-carboxamide] | 206 | 440
14 | CC(C)(NC(=O)c1cc(-c2ccc(Cl)cc2)nc(-c2ccnn2C(C)(C)C)c1)C1CC1 [Example 53, 2-(2-tert-Butyl-pyrazol-3-yl)-6-(4-chlorophenyl)-N-(2-cyclopropyl-propan-2-yl)-pyridine-4-carboxamide] | 161 | 860
15 | CC(C)(C)n1nccc1-c1cc(C(=O)NC(C)(C)C(F)(F)F)cc(-c2ccc(Cl)cc2)n1 [Example 54, 2-(2-tert-Butyl-pyrazol-3-yl)-6-(4-chlorophenyl)-N-(1,1,1-trifluoro-2-methyl-propan-2-yl)-pyridine-4-carboxamide] | 206 | 440
16 | CC(C)(CO)NC(=O)c1cc(-c2ccc(Cl)cc2)nc(-c2ccnn2C(C)(C)C)c1 [Example 55, 2-(2-tert-Butyl-pyrazol-3-yl)-6-(4-chlorophenyl)-N-(1-hydroxy-2-methyl-propan-2-yl)-pyridine-4-carboxamide] | 177 | 73
17 | CC(C)(C#N)NC(=O)c1cc(-c2ccc(Cl)cc2)nc(-c2ccnn2C(C)(C)C)c1 [Example 56, 2-(2-tert-Butyl-pyrazol-3-yl)-6-(4-chlorophenyl)-N-(2-cyano-propan-2-yl)-pyridine-4-carboxamide] | 230 | 210
